Assays:
[1] = molecular target: ADBR2 (beta-2 adrenergic receptor) GPCR (Homo sapiens, UniProt P07550); experiment: ADBR2 GPCR-targeting cell-based assay (spot formation); conditions: 20 micromole; U2OS cells stably expressing ADBR2 GPCR
Mucin 5A/C [2] = experiment: Acrolein-induced Mucin 5A/C expression in A549 cells (RT-PCR); format: cell-based, human; conditions: pre-treated 1 hour, then 30 nM acrolein, dose dependent
Description: The diluted A549 cell line (ATCC, CCL-185) with DMEM medium supplemented with 5% phenol red and FBS (Fetal Bovine Serum) was seeded in 6 well plates (4×10^5 cells/well) to adhere thereto for a night, and 20 and 40 microgram/ml of ATC2 extract were treated with A549 cell line for 1 hours. 30 nM acrolein was treated therewith to induce Mucin 5A/C expression. The medium was removed the cell, washed with PBS solution and homogenized with Trizol (Invitrogen, CA, USA) for the isolation of ribonucleic acids from the cells for 5 mins. the cells were collected, transferred to centrifugal separator, completely mixed with chloroform for 15 seconds, left alone for 3 mins and centrifuged for 15 mins at the speed of 14,000 rpm. The supernatant containing ribonucleic acid was transferred to new tube and mixed with isopropylalcohol for 10 mins. The solution was centrifuged to discard the supernatant and 75% ethanol was added to the precipitate. The precipitate was centrifuged for 5 mins at the speed of 10,000 rpm and the supernatant was discarded. The precipitated ribonucleic acid was dried at room temperature for 20 mins. […] After the quantification of ribonucleic acid, the complementary DNA was synthesized using by 1 microgram of RNA and RT-kit (Omniscript RT kit, Qiagen, USA) and the synthetic cDNA was used as a template. […]

[3] = test system: KC/CXCL-1 (Chemokines Gro-α); experiment: COPD mouse model (LPS+CS): KC/CXCL-1 in BALF by ELISA; format: in vivo, BALB/c mice; conditions: 15 mg/kg, p.o.
Description: (§1) 8 weeks aged BALB/c male mice was anaesthetized with 7% chloral hydrate and 100 μl of LPS+CS mixture {LPS (100 μg/ml)+standard cigarette extract (Cigarette smoking (CS), 4 mg/ml)=1:1} was inhaled to mice (i.t.) for three weeks once a week to prepare COPD animal model. Briefly, 100 μl of LPS+CS mixture was evenly inhaled to nose and mouth of fastened mice (i.t). […] After the end of experiment, the blood, BALF, and pneumonocyte of each mice were isolated and collected to test. The level of IL-1β, IL-6, TNF-a, IL-17, MCP-1, and GRO-a (BioSource, USA) in BALF isolated from mice was determined by enzyme-linked immuno-sorbent assay. Respective antibodies against L-1β, IL-6, TNF-a, IL-17, MCP-1, and GRO-a were diluted with a coating buffer solution (291195, R&D System, USA), coated on a microwell and left alone for overnight at 4° C. Each well was washed three times with washing buffer solution and 100 μl of 10-fold diluted serum was added thereto. […] The solution was left alone for 30 mins in shadow and added with 50 μl of stop solution (DY994, R&D system, USA) to determine the absorbance using by ELISA leader at 450 nm (340PC384, Molecular Devices, USA).

[4] = test system: inflammatory immunocytes and neutrophils in BALF; experiment: COPD mouse model (LPS+CS, i.t.): immunocytes, neutrophils and T lymphocytes in BALF; format: in vivo, BALB/c mice; conditions: 15 mg/kg, p.o.
Description: Specific pathogen-free male BALB/c mice (about 18-20 g), aged 8 weeks, which were routinely screened serologically for relevant respiratory pathogens, were purchased from ORIENT Co. (www.orient.co.kr, Seoul, Korea) and bred allowing to access freely to feed and water in breeding room controlling the temperature of 22±2° C., and humidity of 55±15% at the light-dark cycle for 12 hours and acclimated with the experimental environment for 1 week. […] 8 weeks aged BALB/c male mice was anaesthetized with 7% chloral hydrate and 100 μl of LPS+CS mixture {LPS (100 μg/ml)+standard cigarette extract (Cigarette smoking (CS), 4 mg/ml)=1:1} was inhaled to mice (i.t.) for three weeks once a week to prepare COPD animal model. Briefly, 100 μl of LPS+CS mixture was evenly inhaled to nose and mouth of fastened mice (i.t). […] After the end of experiment, the blood, BALF, and pneumonocyte of each mice were isolated and collected to test. After blood collection, 1 ml of FBS-free/DMEM medium contained in injector was injected to the trachea of autopsied mice, and the mice was fixed with string to circulate the blood three times and isolate the cell from BALF. […] The isolated PBMCs, BAL (Bronchoalveolar lavage), and pneumocyte were adjusted to 5×10^5 cells and performed to immunofluorescence staining at 4° C. PE-anti-CD3e (553064, BD Pharmingen, USA), FITC-anti-CD8 (553031, BD Pharmingen, USA), PE-anti-CD4 (553047, BD Pharmingen, USA), PE-anti-Gr-1 (553128, BD Pharmingen, USA), and FITC-anti-neutrophil (ab55453, Abcam, UK) were added thereto, respectively, and reacted for 30 mins in ice. After the reaction, the cells were washed with phosphate buffered physiological saline solution more than three times and the cell frequency (%) of CD3^+CD4^+& CD3^+CD8^+, and Gr-1^+Neutrophil^+ was determined using by Cell Quest program (643274, BD Biosciences, USA) of the flow cytometer (FACSCalibur, Becton, Dickinson, USA) and the absolute total number in each tissue was calculated by applying total cells.

MIP-2/CXCL-2 = experiment: COPD mouse model (LPS+CS): MIP-2/CXCL-2 in BALF by ELISA; format: in vivo, BALB/c mice; conditions: 15 mg/kg, p.o.
TNF-α = experiment: COPD mouse model (LPS+CS): TNF-α in BALF by ELISA; format: in vivo, BALB/c mice; conditions: 15 mg/kg, p.o.
Description: as §1

Mucin 5A/C [5] = experiment: Digitization of Mucin 5A/C expression in A549 cells by high content screening; format: cell-based, human; conditions: 1, 5 and 10 ng/ml, versus control medium (GM)
Description: Accordingly, the present inventors developed novel high throughput screening test by introducing high content screening system which can quantitatively determine the expression of target protein in animal cell level and in order to screening the inhibiting agent of Mucin 5AC expression, following test was performed by modifying the target activator method published on Cellomics BioApplication.
A549 cell line (ATCC, CCL-185), a epithelial cell line isolated from human lung cancer tissue was seeded on 96 well plates (5,000 cells/well) and 24 hrs after the seeding, 20 ng/ml of bFGF, 100 ng/ml of EGF, 20 micromole IGF, 5 ng/ml of TGF-beta1, 30 nanomole acrolein, 5 nanomole PMA, 1 microgram/ml, LPS and 20 ng/ml of IL-1 beta were treated therewith. The expression of Mucin 5A/C was digitized by target activator program in Cellomics apparatus.
Various concentrations of TGF-beta 1 (PeproTech, #100-21), i.e., 1, 5 and 10 ng/ml TGF-beta 1 were treated with A549 cell line (ATCC, CCL-185), and the expression of Mucin 5A/C was digitized by target activator program in Cellomics apparatus.
Various concentrations of ATC2 extract were treated with A549 cell line for 2 hours and then […] TNF-alpha (Sigma, H8916) was treated therewith for 24 hours. The expression of Mucin 5A/C was digitized by target activator program in Cellomics apparatus.

ADBR2 (beta-2 adrenergic receptor) GPCR, sequence (P07550 whole entry): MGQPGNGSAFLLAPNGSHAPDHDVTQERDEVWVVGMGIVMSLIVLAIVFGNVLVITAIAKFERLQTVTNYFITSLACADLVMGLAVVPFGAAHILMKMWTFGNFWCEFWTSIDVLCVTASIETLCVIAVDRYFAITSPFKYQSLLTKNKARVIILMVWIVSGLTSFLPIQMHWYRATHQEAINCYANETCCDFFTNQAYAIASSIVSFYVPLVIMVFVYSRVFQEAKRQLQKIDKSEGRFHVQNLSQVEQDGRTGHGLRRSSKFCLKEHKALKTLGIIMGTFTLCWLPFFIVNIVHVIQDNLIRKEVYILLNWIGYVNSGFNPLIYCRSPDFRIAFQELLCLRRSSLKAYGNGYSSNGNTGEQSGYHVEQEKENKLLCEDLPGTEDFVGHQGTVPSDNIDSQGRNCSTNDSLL

How did the spot formation [1] turn out when `COc1ccc(C(=O)O[C@H]2[C@@H]3C=CO[C@@H](O[C@@H]4O[C@H](CO)[C@@H](O)[C@H](O)[C@H]4O)[C@@H]3[C@@]3(CO)O[C@@H]23)cc1OC` [6-O-veratroyl catalpol, 6-O-(3,4-dimethoxybenzoly) catalpol] was run?
The spot formation was “did not show spot formation”.

What about the “expression of Mucin 5A/C (mRNA, RT-PCR)” value (Mucin 5A/C [2]) of the same compound?
Its value is “inhibited”.

Which results are given for `O=C(Nc1c(Cl)cncc1Cl)c1ccc(OC(F)F)c(OCC2CC2)c1` [Roflumilast, reference compound]?
reduction of chemokine KC/CXCL-1 in BALF compared with control group [3]: > 82.7%; number of total immunocyte in BALF compared with control group [4]: sharply reduced; reduction of number of neutrophils (Diff-Quik stained, cytospin) in BALF compared with control group [4]: > 99.0%; reduction of total absolute cell number of CD8+ T cell in BALF compared with control group [4]: more than 67.2%; reduction of total absolute cell number of Neutrophils+Gr-1+ cell in BALF compared with control group [4]: > 97.5%; reduction of chemokines MIP-2/CXCL-2 in BALF compared with control group (MIP-2/CXCL-2): > 81.9%; reduction of TNF-α in BALF compared with control group (TNF-α): > 65.0%

`O=C(O[C@H]1[C@@H]2C=CO[C@@H](O[C@@H]3O[C@H](CO)[C@@H](O)[C@H](O)[C@H]3O)[C@@H]2[C@@]2(CO)O[C@@H]12)c1ccc(O)cc1` [catalposide, 6-O-(4-hydroxybenzolyl) catalpol] was tested. Which spot formation [1] did it give?
Its spot formation is “did not show spot formation”.

Which spot formation [1] does the source give for `COc1ccc(C(=O)OC2C3C=COC(OC4OC(CO)C(O)C(O)C4O)C3C3(CO)OC23)cc1O` (centres unmarked) [isovanilloyl catalpol, 6-O-(3-hydroxy-4-methoxybenzoyl)catalpol] here?
The spot formation was “did not show spot formation”.

With `COc1cc(C(=O)O[C@H]2[C@@H]3C=CO[C@@H](O[C@@H]4O[C@H](CO)[C@@H](O)[C@H](O)[C@H]4O)[C@@H]3[C@@]3(CO)O[C@@H]23)ccc1O` [picroside II, 6-O-(4-hydroxy-3-methoxybenzoly) catalpol] as the compound, how does the spot formation [1] read?
The spot formation was “did not show spot formation”.

With `COc1ccc(C(=O)O)cc1OC` [veratric acid] as the compound, how does the spot formation [1] read?
The spot formation was “did not show spot formation”.

“TGF-beta1: TGF-beta 1 (PeproTech, #100-21)” was tested. Which “expression of Mucin 5A/C” value (Mucin 5A/C [5]) did it give?
Its value is “more inhibited the expression of MUCSA/C than control medium”.
